# Measured values from PubChem BioAssay (NCI).
#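 Interpolation was linear, between the two tested concentrations surrounding the appropriate level; five concentrations were tested over 48 hours in 96-well plates. At the TGI there is no net growth.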
# Experiments:
# Assay in all cases: NCI anticancer screen, dose series, 48 h
# PC-3 prostate = tested on: PC-3 prostate
# OVCAR-3 ovarian = tested on: OVCAR-3 ovarian
# K-562 leukemia = tested on: K-562 leukemia
# HT29 colon = tested on: HT29 colon
# BT-549 breast = tested on: BT-549 breast
# SW-620 colon = tested on: SW-620 colon
# 786-0 renal = tested on: 786-0 renal
# MDA-MB-231 breast = tested on: MDA-MB-231 breast
# SK-OV-3 ovarian = tested on: SK-OV-3 ovarian
# HS 578T breast = tested on: HS 578T breast
# SNB-19 CNS = tested on: SNB-19 CNS
# A549 NSCLC = tested on: A549 NSCLC
# MOLT-4 leukemia = tested on: MOLT-4 leukemia
# MCF7 breast = tested on: MCF7 breast
# COLO 205 colon = tested on: COLO 205 colon
# HOP-92 NSCLC = tested on: HOP-92 NSCLC
# SN12C renal = tested on: SN12C renal
# HCT-15 colon = tested on: HCT-15 colon
# SK-MEL-5 melanoma = tested on: SK-MEL-5 melanoma
# EKVX NSCLC = tested on: EKVX NSCLC
# NCI-H226 lung = tested on: NCI-H226 lung
# T-47D breast = tested on: T-47D breast
# A498 renal = tested on: A498 renal
# RXF 393 renal = tested on: RXF 393 renal
# SF-268 CNS = tested on: SF-268 CNS
# SR leukemia = tested on: SR leukemia
# OVCAR-8 ovarian = tested on: OVCAR-8 ovarian
# UACC-257 melanoma = tested on: UACC-257 melanoma
# HCT-116 colon = tested on: HCT-116 colon
# OVCAR-5 ovarian = tested on: OVCAR-5 ovarian
# DU-145 prostate = tested on: DU-145 prostate
# ACHN renal = tested on: ACHN renal
# MDA-N = tested on: MDA-N
# MDA-MB-435 = tested on: MDA-MB-435
# U251 CNS = tested on: U251 CNS
# CCRF-CEM leukemia = tested on: CCRF-CEM leukemia
# HOP-62 NSCLC = tested on: HOP-62 NSCLC
# KM12 colon = tested on: KM12 colon
# TK-10 renal = tested on: TK-10 renal
# MALME-3M melanoma = tested on: MALME-3M melanoma
# HL-60(TB) leukemia = tested on: HL-60(TB) leukemia
# RPMI-8226 leukemia = tested on: RPMI-8226 leukemia
# IGROV1 ovarian = tested on: IGROV1 ovarian
# SNB-75 CNS = tested on: SNB-75 CNS
# OVCAR-4 ovarian = tested on: OVCAR-4 ovarian
# CAKI-1 renal = tested on: CAKI-1 renal
# UO-31 renal = tested on: UO-31 renal
# NCI-H460 lung = tested on: NCI-H460 lung
# SK-MEL-28 melanoma = tested on: SK-MEL-28 melanoma
# NCI/ADR-RES ovarian = tested on: NCI/ADR-RES ovarian
# LOX IMVI melanoma = tested on: LOX IMVI melanoma
# UACC-62 melanoma = tested on: UACC-62 melanoma
# M14 melanoma = tested on: M14 melanoma
# SK-MEL-2 melanoma = tested on: SK-MEL-2 melanoma
# NCI-H23 lung = tested on: NCI-H23 lung
# NCI-H522 lung = tested on: NCI-H522 lung
# SF-295 CNS = tested on: SF-295 CNS
# HCC-2998 colon = tested on: HCC-2998 colon
# SF-539 CNS = tested on: SF-539 CNS
smiles,measurement,setting,value
c1ccc(C[n+]2cccc(-c3cc4ccccc4[nH]3)c2)cc1,TGI,PC-3 prostate,> 100 µM
same,TGI,OVCAR-3 ovarian,> 100 µM
same,TGI,K-562 leukemia,77.8 µM
same,TGI,HT29 colon,> 100 µM
same,TGI,BT-549 breast,36.6 µM
same,TGI,SW-620 colon,> 100 µM
same,TGI,786-0 renal,> 100 µM
same,TGI,MDA-MB-231 breast,> 100 µM
same,TGI,SK-OV-3 ovarian,> 100 µM
same,TGI,HS 578T breast,> 100 µM
same,TGI,SNB-19 CNS,> 100 µM
same,TGI,A549 NSCLC,> 100 µM
same,TGI,MOLT-4 leukemia,91.1 µM
same,TGI,MCF7 breast,98.8 µM
same,TGI,COLO 205 colon,28.8 µM
same,TGI,HOP-92 NSCLC,54 µM
same,TGI,SN12C renal,42.6 µM
same,TGI,HCT-15 colon,> 100 µM
same,TGI,SK-MEL-5 melanoma,23.8 µM
same,TGI,EKVX NSCLC,> 100 µM
same,TGI,NCI-H226 lung,> 100 µM
same,TGI,T-47D breast,> 100 µM
same,TGI,A498 renal,> 100 µM
same,TGI,RXF 393 renal,> 100 µM
same,TGI,SF-268 CNS,> 100 µM
same,TGI,SR leukemia,> 100 µM
same,TGI,OVCAR-8 ovarian,> 100 µM
same,TGI,UACC-257 melanoma,32.3 µM
same,TGI,HCT-116 colon,> 100 µM
same,TGI,OVCAR-5 ovarian,> 100 µM
same,TGI,DU-145 prostate,> 100 µM
same,TGI,ACHN renal,> 100 µM
same,TGI,MDA-N,37.6 µM
same,TGI,MDA-MB-435,43.7 µM
same,TGI,U251 CNS,> 100 µM
same,TGI,CCRF-CEM leukemia,38.6 µM
same,TGI,HOP-62 NSCLC,96.4 µM
same,TGI,KM12 colon,32 µM
same,TGI,TK-10 renal,> 100 µM
same,TGI,MALME-3M melanoma,34.1 µM
same,TGI,HL-60(TB) leukemia,40.5 µM
same,TGI,RPMI-8226 leukemia,41.2 µM
same,TGI,IGROV1 ovarian,42.6 µM
same,TGI,SNB-75 CNS,> 100 µM
same,TGI,OVCAR-4 ovarian,> 100 µM
same,TGI,CAKI-1 renal,> 100 µM
same,TGI,UO-31 renal,> 100 µM
same,TGI,NCI-H460 lung,> 100 µM
same,TGI,SK-MEL-28 melanoma,38 µM
same,TGI,NCI/ADR-RES ovarian,> 100 µM
same,TGI,LOX IMVI melanoma,37.9 µM
same,TGI,UACC-62 melanoma,32.1 µM
same,TGI,M14 melanoma,55.2 µM
same,TGI,SK-MEL-2 melanoma,32.8 µM
same,TGI,NCI-H23 lung,71 µM
same,TGI,NCI-H522 lung,53.9 µM
same,TGI,SF-295 CNS,> 100 µM
O=[N+]([O-])c1ccc(Sc2c3ccccc3nc3ccccc23)nc1,TGI,PC-3 prostate,28.9 µM
same,TGI,OVCAR-3 ovarian,11.2 µM
same,TGI,HT29 colon,8.62 µM
same,TGI,BT-549 breast,27.3 µM
same,TGI,HCC-2998 colon,32.1 µM
same,TGI,SW-620 colon,4.79 µM
same,TGI,786-0 renal,4.25 µM
same,TGI,MDA-MB-231 breast,15.4 µM
same,TGI,SK-OV-3 ovarian,17.7 µM
same,TGI,HS 578T breast,60.7 µM
same,TGI,SNB-19 CNS,40.5 µM
same,TGI,A549 NSCLC,43.7 µM
same,TGI,MOLT-4 leukemia,8.99 µM
same,TGI,MCF7 breast,9.15 µM
same,TGI,COLO 205 colon,6.39 µM
same,TGI,HOP-92 NSCLC,6.79 µM
same,TGI,SN12C renal,29.6 µM
same,TGI,HCT-15 colon,12.1 µM
same,TGI,SK-MEL-5 melanoma,30.7 µM
same,TGI,EKVX NSCLC,31 µM
same,TGI,NCI-H226 lung,35.8 µM
same,TGI,T-47D breast,6.52 µM
same,TGI,A498 renal,32.8 µM
same,TGI,RXF 393 renal,7.08 µM
same,TGI,SF-268 CNS,19 µM
same,TGI,SR leukemia,> 21.3 µM
same,TGI,OVCAR-8 ovarian,> 49.3 µM
same,TGI,UACC-257 melanoma,19.2 µM
same,TGI,HCT-116 colon,4.22 µM
same,TGI,OVCAR-5 ovarian,33.2 µM
same,TGI,DU-145 prostate,14.3 µM
same,TGI,ACHN renal,20.5 µM
same,TGI,MDA-N,17.6 µM
same,TGI,MDA-MB-435,21.3 µM
same,TGI,U251 CNS,46.3 µM
same,TGI,CCRF-CEM leukemia,5.76 µM
same,TGI,HOP-62 NSCLC,47.3 µM
same,TGI,KM12 colon,44.5 µM
same,TGI,SF-539 CNS,31.2 µM
same,TGI,TK-10 renal,6.84 µM
same,TGI,MALME-3M melanoma,6.09 µM
same,TGI,RPMI-8226 leukemia,5.03 µM
same,TGI,IGROV1 ovarian,30.6 µM
same,TGI,SNB-75 CNS,29.2 µM
same,TGI,OVCAR-4 ovarian,12.9 µM
same,TGI,CAKI-1 renal,11.8 µM
same,TGI,UO-31 renal,12.4 µM
same,TGI,NCI-H460 lung,42.6 µM
same,TGI,SK-MEL-28 melanoma,15.6 µM
same,TGI,NCI/ADR-RES ovarian,45.7 µM
same,TGI,LOX IMVI melanoma,4.97 µM
same,TGI,UACC-62 melanoma,29.5 µM
same,TGI,M14 melanoma,10.4 µM
same,TGI,SK-MEL-2 melanoma,38.8 µM
same,TGI,NCI-H23 lung,19.8 µM
same,TGI,NCI-H522 lung,8.09 µM
same,TGI,SF-295 CNS,51.1 µM
